In ChEMBL document CHEMBL1158299, “Effects on cultured neonatal mouse calvaria of the flavonoids isolated from Boerhaavia repens” (1996):
Calls of active or inactive are those of the source. The calls are words filed in the database; no cut-off is given here.

Key:
Settings in all cases: Bone element
Bone [1] = assay: Inhibition of bone resorption in mouse parietal bone culture assessed as 45Ca2 release into culture medium at 200 uM after 0 to 3 days by liquid scintillation counting; type: functional
Bone [2] = assay: Inhibition of bone resorption in mouse parietal bone culture assessed as 45Ca2 release into culture medium at 200 uM after 4 to 6 days by liquid scintillation counting; type: functional
Bone [3] = assay: Inhibition of PTH-induced bone resorption in mouse parietal bone culture assessed as 45Ca2 release into culture medium at 200 uM after 4 to 6 days by liquid scintillation counting; type: functional
Bone [4] = assay: Inhibition of PTH-induced bone resorption in mouse parietal bone culture assessed as 45Ca2 release into culture medium at 200 uM by liquid scintillation counting; type: functional, tissue-based

SMILES | inhibition at 200 µM (Bone [1]) [%] | inhibition at 200 µM (Bone [2]) [%] | inhibition at 200 µM (Bone [3]) [%] | Activity (Bone [4])
COc1cc2oc(-c3ccc(O)cc3)c(O[C@@H]3O[C@H](CO)[C@@H](O)[C@H](O)[C@H]3O[C@@H]3O[C@H](CO)[C@H](O)[C@H](O)[C@H]3O)c(=O)c2c(O)c1OC | 29.1 | 38 | 60.3 | –
COc1c(O)cc2oc(-c3ccc(O)cc3)c(O[C@@H]3O[C@H](CO[C@@H]4O[C@@H](C)[C@H](O)[C@@H](O)[C@H]4O)[C@H](O)[C@H](O)[C@H]3O)c(=O)c2c1O | – | – | – | inactive
COc1cc2oc(-c3ccc(O)cc3)c(O[C@@H]3O[C@H](CO)[C@H](O)[C@H](O)[C@H]3O)c(=O)c2c(O)c1OC | 20.6 | 23.1 | 55.3 | –
